According to the supplement of paper PMC10307832:

Legend:
Assay in all cases: relative viability (nuclei count vs DMSO), 5 days (fraction); higher = more cells survive
[1] = compound: C1COCCN1C2=CC(=O)C3=C(O2)C(=CC=C3)C4=CC=CC5=C4SC6=CC=CC=C56
Method in brief: (§1)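 Viability was read as treated-well nuclei divided by vehicle-well nuclei, using the median across plates. Lung cancer cell lines in 1536-well plates were kept overnight at 37 °C, pinned with five √10-spaced library-drug doses, and after 5 days were Hoechst-stained, imaged at 4× and counted in MetaXpress. Plates passed only with control CV below 25% and at least one doubling.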

[2] = compound: CCN(CC)CCCCNc1ncc2cc(-c3cc(OC)cc(OC)c3)c(NC(=O)NC(C)(C)C)nc2n1
Method in brief: as §1

PRIMA-1MET = compound: COCC1(CO)C(=O)C2CCN1CC2 [PRIMA-1MET]
Method in brief: as §1

Zibotentan = compound: COc1nc(C)cnc1NS(=O)(=O)c1cccnc1-c1ccc(-c2nnco2)cc1 [Zibotentan]
Method in brief: as §1

[3] = compound: O=c1cc(-c2cccc3c2Sc2ccccc2S3)oc(N2CCOCC2)c1
Method in brief: as §1

| Cell Line | relative viability ([1]; 0.01 µM) | relative viability ([1]; 0.03162 µM) | relative viability ([1]; 0.1 µM) | relative viability ([1]; 0.3162 µM) | relative viability ([1]; 1 µM) | relative viability ([2]; 0.01 µM) | relative viability ([2]; 0.03162 µM) | relative viability ([2]; 0.1 µM) | relative viability ([2]; 0.3162 µM) | relative viability ([2]; 1 µM) | relative viability (PRIMA-1MET; 0.2 µM) | relative viability (PRIMA-1MET; 0.6325 µM) | relative viability (PRIMA-1MET; 6.325 µM) | relative viability (PRIMA-1MET; 20 µM) | relative viability (Zibotentan; 0.08 µM) | relative viability (Zibotentan; 0.253 µM) | relative viability (Zibotentan; 0.8 µM) | relative viability (Zibotentan; 2.53 µM) | relative viability ([3]; 0.08 µM) | relative viability ([3]; 0.253 µM) | relative viability ([3]; 0.8 µM) | relative viability ([3]; 2.53 µM) | relative viability ([3]; 8 µM) | relative viability (PRIMA-1MET; 2 µM) |
| --- | --- | --- | --- | --- | --- | --- | --- | --- | --- | --- | --- | --- | --- | --- | --- | --- | --- | --- | --- | --- | --- | --- | --- | --- |
| HARA | 0.859 | 0.893 | 0.958 | 0.981 | 0.865 | 1.14 | 1.06 | 1.04 | 0.993 | 0.636 | 1.04 | 0.796 | 0.977 | 0.997 | 1.04 | 0.86 | 0.951 | 1 | 0.903 | 1.12 | 0.94 | 0.767 | 0.843 | – |
| LK-2 | 1.03 | 1.07 | 1.12 | 0.97 | 1.07 | 1.06 | 0.944 | 0.903 | 0.709 | 0.312 | 1.06 | 0.925 | 0.514 | 0.197 | 1.24 | 0.923 | 0.906 | 0.953 | 1.09 | 1.16 | 1.06 | 0.9 | 1.45 | 0.602 |
| NCI-H441 | 1.1 | 0.977 | 1.08 | 0.938 | 1.05 | 1.05 | 1.08 | 1.25 | 1.12 | 0.995 | 1 | 0.87 | 0.99 | 0.713 | 1.11 | 0.828 | 1.3 | 0.985 | 1.02 | 1.27 | 1.23 | 0.971 | 1.1 | 0.812 |
| SK-LU-1 | 1.05 | 1.13 | 0.92 | 1.07 | 1.04 | 1.05 | 0.991 | 1.24 | 1.27 | 0.952 | 1.16 | 1.06 | 1.13 | 0.837 | 1.01 | 1.04 | 1.02 | 1.08 | 1.14 | 1.14 | 1.3 | 0.97 | 1.13 | 0.801 |
| NCI-H1651 | 0.983 | 0.976 | 0.975 | 0.998 | 0.944 | 1.04 | 0.988 | 1.05 | 1.06 | 0.979 | 1.08 | 0.901 | 1.04 | 0.946 | 1.03 | 0.912 | 0.937 | 1.03 | 0.974 | 1.13 | 0.983 | 0.941 | 1.07 | 0.907 |
| NCI-H1792 | 0.939 | 0.99 | 0.908 | 0.91 | 0.868 | 0.979 | 0.976 | 1.04 | 1.25 | 0.521 | 0.923 | 0.804 | 0.924 | 0.778 | 0.998 | 0.763 | 0.879 | 0.943 | 0.904 | 1.06 | 0.783 | 0.864 | 0.863 | 0.677 |
| HCC-78 | 1.07 | 0.94 | 0.856 | 0.886 | 0.774 | 0.879 | 0.906 | 1.06 | 1.08 | 0.917 | 1.15 | 0.925 | 1.03 | 0.474 | 1.03 | 0.942 | 0.937 | 0.782 | 0.949 | 1.09 | 0.75 | 0.871 | 1.03 | 0.724 |
